According to patent publication US20070265456A1, “Novel crystal forms of atorvastatin hemi-calcium and processes for their preparation as well as novel processes for preparing other forms” (priority 2006, published 2007):

Test: Stability testing against formation of the impurities atorvastatin-epoxy-dihydroxy (AED) and epoxydiketone on storage
Format: physicochemical
Design: key to ATV-epoxy-diketone: impurity content in % (w/w)
Procedure: As used herein, the term “stable” in reference to atorvastatin hemi-calcium Form VIII relates to the formation of […] 0.01% (w/w) of the impurity AED. The stability of Form VIII is measured by maintaining Form VIII at a temperature of about 40° C. at a relative humidity of about 75% for at least about 1 month, or at a temperature of about 25° C. at a relative humidity of about 60% for at least about 6 months. Stable atorvastatin hemi-calcium Form VIII is a Form VIII in which no more than about 0.01% (w/w) of the AED impurity is formed when maintained under the conditions specified above.
The atorvastatin hemi-calcium crystalline produced above was dried by two steps: In a vacuum dryer at about 40° C. by 3 cycles and after the LOD<5% was reached the drying was continued in a fluid bed dryer at about 50° C. The dry material was milled and micronized.
The dried, milled, atorvastatin hemi-calcium crystalline was tested for stability against the formation of two potential impurities: atorvastatin-epoxy-dihydroxy (AED) and epoxydiketone.

[1] = 0 (5 m at storage) (Test Sample B)
[2] = 1 m/25° C./60% RH (Test Sample E)
[3] = 1 m/40° C./75% RH (Test Sample I)
[4] = 2 m/25° C./60% RH (Test Sample F)
[5] = 2 m/40° C./75% RH (Test Sample J)
[6] = 3 m/25° C./60% RH (Test Sample G)
[7] = 3 m/40° C./75% RH (Test Sample K)
[8] = 6 m/25° C./60% RH (Test Sample H)
[9] = 6 m/40° C./75% RH (Test Sample L)

In the case of `CC(C)c1c(C(=O)Nc2ccccc2)c(-c2ccccc2)c(-c2ccc(F)cc2)n1CC[C@@H](O)C[C@@H](O)CC(=O)O` (relative stereo) [atorvastatin hemi-calcium crystalline, atorvastatin hemi-calcium], the ATV-epoxy-dihydroxy (AED) [1] is reported as < 0.01 % (w/w), the ATV-epoxy-diketone [1] is reported as less than 0.01 and the ATV-epoxy-dihydroxy (AED) [2] is reported as < 0.01 % (w/w). The ATV-epoxy-diketone [2] was less than 0.01, the ATV-epoxy-dihydroxy (AED) [3] was < 0.01 % (w/w) and the ATV-epoxy-diketone [3] was less than 0.05. For the same molecule, the ATV-epoxy-dihydroxy (AED) [4] was < 0.01 % (w/w), the ATV-epoxy-diketone [4] was less than 0.05 and the ATV-epoxy-dihydroxy (AED) [5] was < 0.05 % (w/w). For the same molecule, the ATV-epoxy-diketone [5] was less than 0.05, the ATV-epoxy-dihydroxy (AED) (3 m/2-8° C. (Test Sample C)) was < 0.01 % (w/w) and the ATV-epoxy-diketone (3 m/2-8° C. (Test Sample C)) was less than 0.05. The ATV-epoxy-dihydroxy (AED) [6] was < 0.01 % (w/w), the ATV-epoxy-diketone [6] was less than 0.05 and the ATV-epoxy-dihydroxy (AED) [7] was < 0.05 % (w/w). For the same molecule, the ATV-epoxy-diketone [7] was 0.05, the ATV-epoxy-dihydroxy (AED) (6 m/2-8° C. (Test Sample D)) was < 0.05 % (w/w) and the ATV-epoxy-diketone (6 m/2-8° C. (Test Sample D)) was less than 0.05. The ATV-epoxy-dihydroxy (AED) [8] was < 0.01 % (w/w), the ATV-epoxy-diketone [8] was less than 0.05 and the ATV-epoxy-dihydroxy (AED) [9] was < 0.05 % (w/w). For the same molecule, the ATV-epoxy-diketone [9] was 0.05, the ATV-epoxy-dihydroxy (AED) (release (Test Sample A)) was < 0.01 % (w/w) and the ATV-epoxy-diketone (release (Test Sample A)) was less than 0.01.
